# Assay results as given in patent US11458212B2, “Molecular imaging of cancer cells in vivo” (H. Lee Moffitt Cancer Center and Research Institute, Inc., priority 2011, dated 2022).
# “Also recorded” adds a separate entry of the source.
# Assays:
# parental HEK293 cells = assay: TLR2 functional bioassay in parental HEK293 cells (negative control); format: cell-based; details: ligand stimulated HEK293 cells
# Text: In Vitro TLR2 Functional Bioassay The in vitro TLR2 functional bioassay was developed and optimized for use in screening soluble compound libraries to identify both TLR2 agonists and antagonists. In this study, the TLR2 functional bioassay was used as a fast high throughput screening to identify TLR2 agonist ligands by measuring the inducing activity of NF-κB. HEK293/hTLR2 cells, highly overexpressing human TLR2, were used along with the parental HEK293, cells as a negative control. […] On day 4 after 24 hrs of peptide stimulation, luciferase induced activity by the induction of NF-κB was measured. […] The luminescence intensity was measured using the standard luminescence protocol on a Victor™ X4 plate-reader equipped with a plate stacker for readout of multiple plates at a time (PerkinElmer, Waltham, Mass.). […] Data were analyzed with GraphPad Prism software and curves were generated with the appropriate nonlinear fit regression analysis.
# The in vitro TLR2 functional bioassay was developed and optimized for use in high-throughput screening of soluble compound libraries to identify both TLR2 agonists and antagonists. […] On day 4 after 24 h of peptide stimulation, luciferase induced activity by the induction of NF-κB was measured. […]
# [1] = test system: Trp1455/9M-specific CD8 T cells; assay: In vivo cellular immune response assay (immune adjuvant); design: species or system B6 mice; details: for fluorescence of stained tetramer positive CD8 T cells: day 7; for maximum amount of fluorescently stained tetramer positive CD8 T cells: day 7, peripheral blood, i.v. immunization, n=3
# Method: To assess the efficacy of T-02 as an immune adjuvant, mice were immunized i.v. with a mixture of 100 μg optimized Trp1455/9M peptide (Guevara-Patino, J. A., et al. J Clin Invest, 2006. 116(5):1382-90), 50 μg anti-CD40 mAb (Clone; FGk-45.5), and 50 μg TLR-2 peptide (T-02, Pam2CSK4, or Pam3CSK4). […] The response of tetramer+ CD8 T cells in the blood was measured on day 7, 21, and 34 by tetramer staining. For tetramer staining, peripheral blood was taken from the submandibular vein and treated briefly with ammonium chloride buffer to lyse red blood cells. Blood cells were stained with FITC-conjugated anti-MHC class II, PerCP Cy5.5-conjugated CD8a (both from eBioscience, San Diego, Calif.), and phycoerythrin-conjugated Trp1455/9M/H-2D^b tetramers (provided by the NIH tetramer Facility, Emory University, Atlanta Ga.) for 40 min in ice. Fluorescence was evaluated using a FACSCalibur™ flow cytometer (BD Biosciences) and analyzed using FlowJo software.
# C57BL/6 (B6) mice 6-8 weeks old were purchased from Charles River (Wilmington, Mass.). To assess the efficacy of 10 as an immune adjuvant, B6 mice were immunized i.v. with a mixture (in a volume of 200 μl) of 100 μg optimized Trp1455/9M peptide,[10c] 50 μg anti-CD40 monoclonal antibody (Clone; FGk-45.5), and 50 μg TLR2 agonist (10, Pam2CSK4, or Pam3CSK4). […] The response of tetramer positive CD8 T cells in the blood was measured on day 7, 21 and 34 by tetramer staining. For tetramer staining, peripheral blood was taken from the submandibular vein and treated briefly with ammonium chloride buffer to lyse red blood cells. Blood cells were stained with FITC-conjugated anti-MHC class II, PerCP Cy5.5-conjugated CD8a, and phycoerythrin-conjugated Trp1455/9M/H-2D^b tetramers for 40 min in ice. Fluorescence was evaluated using a FACSCalibur flow cytometer (BD Biosciences) and analyzed using FlowJo software.
Compound,NF-κB induced luciferase activity in non-expressing TLR2 cell line (parental HEK293 cells),fluorescence of stained tetramer positive CD8 T cells [1],maximum amount of fluorescently stained tetramer positive CD8 T cells [1]
"CCCCCCCCCCCCCCCC(=O)OCC(CSC[C@H](N)C(=O)N[C@@H](CO)C(=O)N[C@@H](CCCCN)C(=O)N[C@@H](CCCCN)C(=O)N[C@@H](CCCCN)C(=O)N[C@@H](CCCCN)C(=O)O)OC(=O)CCCCCCCCCCCCCCC (mixture of isomers) [Pam2CSK4, S-[2,3-bis(palmitoyloxy)-(2RS)-propyl]-[R]-cysteinyl-[S]-seryl-[S]-lysyl-[S]-lysyl-[S]-lysyl-[S]-lysine, reference compound]",did not exhibit significant NF-κB induced luciferase activity,High fluorescence,56.6%
"CCCCCCCCCCCCCCCC(=O)N[C@@H](CSCC(COC(=O)CCCCCCCCCCCCCCC)OC(=O)CCCCCCCCCCCCCCC)C(=O)N[C@@H](CO)C(=O)N[C@@H](CCCCN)C(=O)N[C@@H](CCCCN)C(=O)N[C@@H](CCCCN)C(=O)N[C@@H](CCCCN)C(=O)O (mixture of isomers) [Pam3CSK4, N-Palmitoyl-S-[2,3-bis(palmitoyloxy)-(2RS)-propyl]-[R]-cysteinyl-[S]-seryl-[S]-lysyl-[S]-lysyl-[S]-lysyl-[S]-lysine, reference compound]",did not exhibit any significant NF-κB luciferase activity; also recorded: did not exhibit significant NF-κB induced luciferase activity; also recorded: no measurable luminescence; also recorded: No activity was observed,High fluorescence,51.7%
